Experimental data reported in ChEMBL document CHEMBL5303304, “EUbOPEN Chemogenomics Library - IncuCyte” (2023).

What was measured:
Type in all cases: toxicity, cell-based
HEK-293T = experiment: Incucyte cell viability with HEK293T; conditions: human, 10 µM, compound concentration 10 uM
Fibroblast = experiment: Incucyte cell viability with human fibroblast; conditions: 10 µM, compound concentration 10 uM
U2OS = experiment: Incucyte cell viability with U2OS; conditions: human, 10 µM, compound concentration 10 uM
Note: unitless GR value; below 1 slowed growth and below 0 cell loss.

Row | SMILES | Growth Rate (HEK-293T; 0 h, replicate number 1) | Growth Rate (HEK-293T; 12 h, replicate number 2) | Growth Rate (HEK-293T; 18 h, replicate number 1) | Growth Rate (HEK-293T; 18 h, replicate number 2) | Growth Rate (Fibroblast; 0 h, replicate number 2) | Growth Rate (Fibroblast; 18 h, replicate number 2) | Growth Rate (U2OS; 0 h, replicate number 1) | Growth Rate (U2OS; 6 h, replicate number 1) | Growth Rate (U2OS; 12 h, replicate number 2) | Growth Rate (U2OS; 18 h, replicate number 1) | Growth Rate (U2OS; 24 h, replicate number 1) | Growth Rate (HEK-293T; 0 h, replicate number 2) | Growth Rate (HEK-293T; 6 h, replicate number 1) | Growth Rate (HEK-293T; 6 h, replicate number 2) | Growth Rate (Fibroblast; 6 h, replicate number 2) | Growth Rate (Fibroblast; 12 h, replicate number 2) | Growth Rate (Fibroblast; 18 h, replicate number 1) | Growth Rate (Fibroblast; 24 h, replicate number 1) | Growth Rate (U2OS; 6 h, replicate number 2) | Growth Rate (Fibroblast; 12 h, replicate number 1) | also measured
1 | CC(C)(O)CNC(=O)N1C(=O)N(c2cccc(C(F)(F)F)c2)C2=C(C(=O)CC2)[C@H]1c1ccc(C#N)cc1 | -0.47 | 0.98 | 0.94 | 1 | 0.22 | 0.82 | 0.26 | 0.67 | 0.96 | 0.85 | 0.86 |  |  |  |  |  |  |  |  |  | Growth Rate (HEK-293T; 24 h, replicate number 1): 0.94; Growth Rate (Fibroblast; 24 h, replicate number 2): 0.97; Growth Rate (U2OS; 12 h, replicate number 1): 0.56
2 | CCO[C@@H](Cc1ccc(OCCc2ccc(OS(C)(=O)=O)cc2)cc1)C(=O)O [TESAGLITAZAR] | 0.24 | 0.68 |  | 0.85 | 0.24 | 0.87 |  |  |  | 0.98 | 0.87 | -0.46 | 1 | 0.96 | 0.72 | 0.56 | 0.64 | 0.99 | 0.99 |  | Growth Rate (HEK-293T; 24 h, replicate number 2): 0.7; Growth Rate (Fibroblast; 0 h, replicate number 1): 0.92; Growth Rate (Fibroblast; 6 h, replicate number 1): 0.95; Growth Rate (U2OS; 0 h, replicate number 2): 0.8
3 | CN1CCN(c2ccc(Nc3ncc4cc5n(c4n3)C3(CCCCC3)CNC5=O)nc2)CC1 [TRILACICLIB] | -0.98 |  |  |  |  |  | 0.26 | 0.29 |  | 0.92 | 0.84 |  |  |  |  |  |  |  |  |  | Growth Rate (HEK-293T; 24 h, replicate number 2): 0.99; Growth Rate (Fibroblast; 0 h, replicate number 1): -1; Growth Rate (U2OS; 24 h, replicate number 2): 0.98
4 | C/C(=C\C(=O)Nc1ccccc1C(=O)[O-])c1ccc2ccccc2c1.[Na+] | 0.79 |  |  |  | -0.44 |  | 0.38 | 0.69 |  | 0.83 | 0.94 | 0.69 |  |  | -0.21 | 0.94 | 0.97 | 0.83 |  |  | Growth Rate (Fibroblast; 6 h, replicate number 1): 0.57; Growth Rate (U2OS; 12 h, replicate number 1): 0.95
5 | COc1cc2ncnc(Nc3ccc(F)c(Cl)c3)c2cc1OCCN(C)C[C@H](C)O |  | 0.49 | 0.65 | 0.69 | 0 | -0.05 |  | 0.7 | 0.35 | 0.77 | 0.92 | -0.98 | 0.36 | 0.69 | 0.44 | -0.12 | -0.23 | -0.21 | 0.36 | -0.2 | Growth Rate (HEK-293T; 12 h, replicate number 1): 0.61; Growth Rate (HEK-293T; 24 h, replicate number 1): 0.65; Growth Rate (HEK-293T; 24 h, replicate number 2): 0.73; Growth Rate (Fibroblast; 6 h, replicate number 1): -0.42; Growth Rate (Fibroblast; 24 h, replicate number 2): 0; Growth Rate (U2OS; 0 h, replicate number 2): 0.24; Growth Rate (U2OS; 12 h, replicate number 1): 0.68; Growth Rate (U2OS; 18 h, replicate number 2): 0.44; Growth Rate (U2OS; 24 h, replicate number 2): 0.42
6 | CN(C)[C@H]1C[C@H](n2cnc(-c3ccc(F)cn3)c2-c2ccnc3[nH]ccc23)C1 | 0.9 |  |  |  | 0.15 |  | 0.83 |  | 0.81 |  |  | -0.95 |  | 0.95 |  |  | 0.84 |  | 0.94 | 0.89 | Growth Rate (U2OS; 18 h, replicate number 2): 0.94; Growth Rate (U2OS; 24 h, replicate number 2): 0.85
7 | Cc1cc(CN)cc(C)c1-c1ncn(C)c1-c1ccnc2cc(F)ccc12.Cl |  |  |  |  | -0.39 | 0.81 |  | 0.34 |  |  |  | 0.04 | 0.92 |  | -0.26 |  | 0.6 | 0.89 | 0.85 | 0.77 | Growth Rate (Fibroblast; 0 h, replicate number 1): -1; Growth Rate (Fibroblast; 6 h, replicate number 1): 0.02; Growth Rate (Fibroblast; 24 h, replicate number 2): 0.96; Growth Rate (U2OS; 12 h, replicate number 1): 0.92
8 | Nc1ncc2c(n1)-c1c([nH]c3ccc(C4=CCOCC4)cc13)CCC2 | 0.56 | -0.09 | 0.18 | 0.36 | -0.45 | 0.96 |  | 0.74 | 0.98 | 0.96 | 0.76 | -0.64 | -0.33 | -0.1 |  | 0.71 | 0.73 | 0.68 |  | 0.69 | Growth Rate (HEK-293T; 12 h, replicate number 1): -0.13; Growth Rate (HEK-293T; 24 h, replicate number 1): 0.37; Growth Rate (HEK-293T; 24 h, replicate number 2): 0.41; Growth Rate (Fibroblast; 24 h, replicate number 2): 0.71; Growth Rate (U2OS; 0 h, replicate number 2): 0.72
9 | COc1cc(C(=O)NC2CCN(C)CC2)ccc1Nc1ncc(C(F)(F)F)c(NCc2ccc(C)cc2N(C)S(C)(=O)=O)n1.O=CO.O=CO |  | -0.48 | -0.54 | -0.33 |  | -0.55 | -0.98 | 0.97 | -0.43 | -0.12 | -0.27 | -1 | -0.77 | -0.51 | -0.42 | -0.43 | -0.52 | -0.58 | -0.57 | -0.37 | Growth Rate (HEK-293T; 12 h, replicate number 1): -0.63; Growth Rate (HEK-293T; 24 h, replicate number 1): -0.45; Growth Rate (HEK-293T; 24 h, replicate number 2): -0.34; Growth Rate (Fibroblast; 6 h, replicate number 1): -0.43; Growth Rate (Fibroblast; 24 h, replicate number 2): -0.54; Growth Rate (U2OS; 0 h, replicate number 2): -0.24; Growth Rate (U2OS; 12 h, replicate number 1): 0.11; Growth Rate (U2OS; 18 h, replicate number 2): -0.46; Growth Rate (U2OS; 24 h, replicate number 2): -0.53
10 | Cc1onc(O)c1CC(N)C(=O)O [(R,S)-AMPA] |  | 0.69 | 0.78 | 0.64 |  |  | -0.22 |  | 0.82 |  |  | 0.65 | 0.47 | 0.09 | -0.99 | 0.59 |  |  | 0.78 | -1 | Growth Rate (HEK-293T; 12 h, replicate number 1): 0.21; Growth Rate (HEK-293T; 24 h, replicate number 1): 0.74; Growth Rate (Fibroblast; 0 h, replicate number 1): -0.2; Growth Rate (U2OS; 0 h, replicate number 2): -0.98; Growth Rate (U2OS; 18 h, replicate number 2): 0.94; Growth Rate (U2OS; 24 h, replicate number 2): 0.94
